Active and inactive are the calls of the source.
Key:
[1] = Luminescence Cell-Based/Microorganism Confirmation at Dose of Inhibitors of Trypanosoma cruzi Infection. [Related pubchem assays: 1885, 1968 ]; type: functional
[2] = Luminescence Cell-Based Secondary HTS screen to identify cytotoxic compounds of NIH3T3 cells. [Related pubchem assays: 1885, 1968 ]; type: functional
[3] = T. cruzi infection blockers in NIH3T3 cells – beta-gal luminescence, NIH3T3 host cells, confirmation (AID 2630); type: functional, cell-based; conditions: Mus musculus
[4] = target: T1, Dual specificity protein phosphatase 3 (Homo sapiens, UniProt P51452); assay: VHR1 phosphatase inhibitors, primary screen, biochemical, absorbance, uHTS (AID 1654)
T1 sequence (P51452 whole entry): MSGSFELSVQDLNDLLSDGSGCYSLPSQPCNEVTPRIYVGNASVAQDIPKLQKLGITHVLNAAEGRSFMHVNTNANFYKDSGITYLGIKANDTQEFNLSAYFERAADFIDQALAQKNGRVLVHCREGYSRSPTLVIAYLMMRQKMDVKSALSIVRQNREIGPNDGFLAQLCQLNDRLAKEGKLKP

[5] = target: Guanyl-specific ribonuclease T1 (Aspergillus oryzae (strain ATCC 42149 / RIB 40), UniProt P00651); assay: inhibition of ribonuclease T1 activity – biochemical, fluorescence polarization, 1536-well, counter-screen for TPT1 inhibitor project, dose response (AID 2167)
Chain of Guanyl-specific ribonuclease T1 (P00651 whole entry): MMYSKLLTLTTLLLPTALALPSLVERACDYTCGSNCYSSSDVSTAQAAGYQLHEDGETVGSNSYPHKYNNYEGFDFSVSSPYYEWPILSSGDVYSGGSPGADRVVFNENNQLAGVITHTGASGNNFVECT

[6] = target: Likely tRNA 2'-phosphotransferase (Candida albicans (strain SC5314 / ATCC MYA-2876) (Yeast), UniProt Q5A7N4); assay: inhibition of Candida TPT1 enzyme activity – biochemical, fluorescence polarization, dose response (AID 2160)
Chain of Likely tRNA 2'-phosphotransferase (Q5A7N4 whole entry): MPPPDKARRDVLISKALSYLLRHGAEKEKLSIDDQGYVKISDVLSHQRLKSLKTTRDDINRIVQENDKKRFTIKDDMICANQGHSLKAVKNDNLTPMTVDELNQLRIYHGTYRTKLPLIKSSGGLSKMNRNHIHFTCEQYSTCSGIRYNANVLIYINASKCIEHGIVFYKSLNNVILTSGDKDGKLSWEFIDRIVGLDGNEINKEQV

[7] = target: T1, Dual specificity protein phosphatase 3; assay: VHR1 phosphatase inhibitors, biochemical (AID 1878)
[8] = target: T2, Dual specificity protein phosphatase 6 (Rattus norvegicus, UniProt Q64346); assay: inhibition of rat DUSP6 enzyme activity – biochemical, in vitro, primary screen (AID 425)
T2 sequence (Q64346 whole entry): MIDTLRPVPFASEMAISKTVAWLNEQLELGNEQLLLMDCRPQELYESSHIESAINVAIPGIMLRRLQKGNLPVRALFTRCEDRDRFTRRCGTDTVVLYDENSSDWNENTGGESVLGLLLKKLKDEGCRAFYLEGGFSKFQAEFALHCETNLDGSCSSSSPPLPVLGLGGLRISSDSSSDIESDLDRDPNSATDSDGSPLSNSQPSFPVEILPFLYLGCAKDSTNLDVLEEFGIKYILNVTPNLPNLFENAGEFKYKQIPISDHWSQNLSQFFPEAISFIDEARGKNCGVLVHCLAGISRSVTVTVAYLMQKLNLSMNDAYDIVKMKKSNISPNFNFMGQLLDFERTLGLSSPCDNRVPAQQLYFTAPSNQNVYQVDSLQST

Hexokinase HKDC1 = target: T3, Hexokinase HKDC1 (Homo sapiens, UniProt Q2TB90); assay: inhibition of HKDC1 glucose phosphorylation – biochemical, W721R variant, dose response (AID 504729); type: functional
T3 sequence (Q2TB90 whole entry): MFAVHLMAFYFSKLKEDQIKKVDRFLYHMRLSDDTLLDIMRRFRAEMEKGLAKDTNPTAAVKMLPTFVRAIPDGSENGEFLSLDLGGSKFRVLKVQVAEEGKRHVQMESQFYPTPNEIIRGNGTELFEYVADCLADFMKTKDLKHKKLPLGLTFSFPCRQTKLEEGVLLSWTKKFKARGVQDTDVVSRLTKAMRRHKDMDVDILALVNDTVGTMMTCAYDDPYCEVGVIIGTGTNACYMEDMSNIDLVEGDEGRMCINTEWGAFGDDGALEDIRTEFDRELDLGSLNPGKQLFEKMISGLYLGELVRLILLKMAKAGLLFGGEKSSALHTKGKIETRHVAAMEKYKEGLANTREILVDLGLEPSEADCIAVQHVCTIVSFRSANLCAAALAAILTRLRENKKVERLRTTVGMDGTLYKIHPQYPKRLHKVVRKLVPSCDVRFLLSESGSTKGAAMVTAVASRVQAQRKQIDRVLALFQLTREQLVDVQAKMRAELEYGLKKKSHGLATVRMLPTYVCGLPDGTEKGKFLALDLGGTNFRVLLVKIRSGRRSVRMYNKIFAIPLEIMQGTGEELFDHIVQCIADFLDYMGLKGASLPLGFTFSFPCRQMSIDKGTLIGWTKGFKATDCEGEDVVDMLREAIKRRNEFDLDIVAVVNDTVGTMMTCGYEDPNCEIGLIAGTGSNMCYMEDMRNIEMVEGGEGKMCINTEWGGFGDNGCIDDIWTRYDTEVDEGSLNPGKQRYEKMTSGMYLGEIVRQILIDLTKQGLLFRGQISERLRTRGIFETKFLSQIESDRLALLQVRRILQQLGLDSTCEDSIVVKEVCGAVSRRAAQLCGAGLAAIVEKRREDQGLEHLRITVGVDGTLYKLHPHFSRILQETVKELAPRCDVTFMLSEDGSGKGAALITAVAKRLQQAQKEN

[9] = target: Lysine-specific demethylase 4A (Homo sapiens, UniProt O75164); assay: inhibition of JMJD2A H3K9me3 demethylation – biochemical, DELFIA europium, cherry-picked samples, selectivity assay for GASC-1 inhibitor project, dose response (AID 488840)
Chain of Lysine-specific demethylase 4A (O75164 whole entry): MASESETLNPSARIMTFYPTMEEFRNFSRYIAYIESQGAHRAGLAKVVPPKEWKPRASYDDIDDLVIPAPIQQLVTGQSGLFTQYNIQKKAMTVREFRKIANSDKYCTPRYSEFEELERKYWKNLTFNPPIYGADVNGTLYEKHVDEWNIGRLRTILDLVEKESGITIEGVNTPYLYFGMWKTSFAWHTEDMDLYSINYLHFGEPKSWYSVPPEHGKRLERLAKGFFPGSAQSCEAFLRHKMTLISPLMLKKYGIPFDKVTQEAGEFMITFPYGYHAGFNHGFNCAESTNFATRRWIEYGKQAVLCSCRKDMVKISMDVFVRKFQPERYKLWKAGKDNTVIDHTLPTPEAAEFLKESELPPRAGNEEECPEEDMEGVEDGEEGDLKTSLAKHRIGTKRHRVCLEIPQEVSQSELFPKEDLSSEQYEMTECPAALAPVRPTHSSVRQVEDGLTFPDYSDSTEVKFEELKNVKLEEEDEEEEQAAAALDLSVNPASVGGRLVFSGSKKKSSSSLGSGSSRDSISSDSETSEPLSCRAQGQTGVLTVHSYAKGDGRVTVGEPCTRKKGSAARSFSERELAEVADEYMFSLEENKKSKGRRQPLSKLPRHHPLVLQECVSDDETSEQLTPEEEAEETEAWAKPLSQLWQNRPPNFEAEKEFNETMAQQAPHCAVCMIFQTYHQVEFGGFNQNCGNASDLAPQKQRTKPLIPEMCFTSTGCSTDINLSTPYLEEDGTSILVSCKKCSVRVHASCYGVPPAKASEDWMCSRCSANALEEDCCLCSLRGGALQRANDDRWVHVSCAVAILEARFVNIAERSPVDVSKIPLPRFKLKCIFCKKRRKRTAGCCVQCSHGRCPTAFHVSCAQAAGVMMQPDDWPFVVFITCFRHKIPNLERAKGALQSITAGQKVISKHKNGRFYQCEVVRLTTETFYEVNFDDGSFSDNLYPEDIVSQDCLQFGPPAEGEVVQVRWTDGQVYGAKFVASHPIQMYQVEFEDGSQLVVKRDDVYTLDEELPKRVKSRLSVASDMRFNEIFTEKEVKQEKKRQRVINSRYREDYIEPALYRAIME

[10] = target: Lysine-specific demethylase 4C (Homo sapiens, UniProt Q9H3R0); assay: inhibition of JMJD2C H3K9me3 demethylation – biochemical, DELFIA europium, cherry-picked samples, dose response (AID 488835); type: functional
Chain of Lysine-specific demethylase 4C (Q9H3R0 whole entry): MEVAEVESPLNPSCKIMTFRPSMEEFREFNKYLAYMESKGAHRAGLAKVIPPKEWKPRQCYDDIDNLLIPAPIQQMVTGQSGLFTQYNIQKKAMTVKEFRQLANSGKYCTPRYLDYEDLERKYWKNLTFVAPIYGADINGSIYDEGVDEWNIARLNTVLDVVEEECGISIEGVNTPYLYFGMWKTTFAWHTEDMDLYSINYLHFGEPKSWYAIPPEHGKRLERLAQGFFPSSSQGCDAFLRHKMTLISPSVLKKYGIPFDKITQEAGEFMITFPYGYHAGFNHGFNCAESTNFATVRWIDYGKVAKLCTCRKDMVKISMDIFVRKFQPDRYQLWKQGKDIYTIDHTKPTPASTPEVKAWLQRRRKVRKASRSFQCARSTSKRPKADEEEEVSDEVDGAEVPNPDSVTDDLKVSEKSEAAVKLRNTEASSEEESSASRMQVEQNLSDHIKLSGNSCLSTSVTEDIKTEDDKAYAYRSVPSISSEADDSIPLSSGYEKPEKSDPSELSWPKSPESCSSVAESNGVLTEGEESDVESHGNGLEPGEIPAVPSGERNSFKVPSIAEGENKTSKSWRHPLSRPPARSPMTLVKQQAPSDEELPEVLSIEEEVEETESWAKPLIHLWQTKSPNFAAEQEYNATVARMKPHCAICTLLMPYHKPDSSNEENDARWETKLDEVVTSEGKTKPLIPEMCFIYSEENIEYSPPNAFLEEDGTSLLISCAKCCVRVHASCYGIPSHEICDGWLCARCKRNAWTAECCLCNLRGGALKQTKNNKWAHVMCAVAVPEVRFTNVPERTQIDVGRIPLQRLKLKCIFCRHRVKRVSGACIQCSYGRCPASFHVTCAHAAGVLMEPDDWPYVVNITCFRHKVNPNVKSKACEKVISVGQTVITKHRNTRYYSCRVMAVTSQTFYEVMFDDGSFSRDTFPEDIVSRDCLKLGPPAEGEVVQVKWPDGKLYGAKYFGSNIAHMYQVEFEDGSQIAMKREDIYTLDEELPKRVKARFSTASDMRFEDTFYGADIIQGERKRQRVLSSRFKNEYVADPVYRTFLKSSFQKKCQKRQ

CAAX prenyl protease 2 = target: T4, CAAX prenyl protease 2 (Saccharomyces cerevisiae S288c, UniProt Q03530); type: biochemical
T4 sequence (Q03530 whole entry): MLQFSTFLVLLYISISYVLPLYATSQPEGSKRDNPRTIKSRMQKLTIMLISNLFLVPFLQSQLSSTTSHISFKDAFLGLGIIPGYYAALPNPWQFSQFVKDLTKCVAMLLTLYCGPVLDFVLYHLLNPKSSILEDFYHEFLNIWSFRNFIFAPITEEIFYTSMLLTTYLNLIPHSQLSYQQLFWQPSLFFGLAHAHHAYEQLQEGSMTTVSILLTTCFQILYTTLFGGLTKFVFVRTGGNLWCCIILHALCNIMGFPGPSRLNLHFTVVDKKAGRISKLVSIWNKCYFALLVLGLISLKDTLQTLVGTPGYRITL

CAAX prenyl protease 1 = CAAX prenyl protease 1 (Saccharomyces cerevisiae S288c, UniProt P47154); assay: yeast CAAX protease Ste24 inhibition – biochemical, S. cerevisiae, plate reader, cherry-pick, dose response (AID 488815)
Chain of CAAX prenyl protease 1 (P47154 whole entry): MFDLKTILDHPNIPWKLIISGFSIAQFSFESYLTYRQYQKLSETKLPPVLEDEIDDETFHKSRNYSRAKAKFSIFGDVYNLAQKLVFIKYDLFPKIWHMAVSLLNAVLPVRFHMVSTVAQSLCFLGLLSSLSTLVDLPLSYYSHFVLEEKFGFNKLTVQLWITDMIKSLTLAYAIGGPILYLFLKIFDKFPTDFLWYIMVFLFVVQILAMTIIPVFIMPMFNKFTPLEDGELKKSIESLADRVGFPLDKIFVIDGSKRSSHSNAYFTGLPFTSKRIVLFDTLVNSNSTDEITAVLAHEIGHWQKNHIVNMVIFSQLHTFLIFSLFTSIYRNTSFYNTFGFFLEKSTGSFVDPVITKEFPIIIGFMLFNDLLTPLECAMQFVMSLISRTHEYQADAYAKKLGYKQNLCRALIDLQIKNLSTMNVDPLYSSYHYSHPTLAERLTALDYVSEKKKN

Paired box protein Pax-8 = Paired box protein Pax-8 (Homo sapiens, UniProt Q06710); assay: PAX8 transcriptional activity inhibition in RMG-I – RMG-I cells, luciferase, cherry-pick, dose response (AID 687027); type: functional, cell-based;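 further: luciferase reporter driven by Pax8 target thyroperoxidase promoter measured by SteadyGlo luminescence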
Chain of Paired box protein Pax-8 (Q06710 whole entry): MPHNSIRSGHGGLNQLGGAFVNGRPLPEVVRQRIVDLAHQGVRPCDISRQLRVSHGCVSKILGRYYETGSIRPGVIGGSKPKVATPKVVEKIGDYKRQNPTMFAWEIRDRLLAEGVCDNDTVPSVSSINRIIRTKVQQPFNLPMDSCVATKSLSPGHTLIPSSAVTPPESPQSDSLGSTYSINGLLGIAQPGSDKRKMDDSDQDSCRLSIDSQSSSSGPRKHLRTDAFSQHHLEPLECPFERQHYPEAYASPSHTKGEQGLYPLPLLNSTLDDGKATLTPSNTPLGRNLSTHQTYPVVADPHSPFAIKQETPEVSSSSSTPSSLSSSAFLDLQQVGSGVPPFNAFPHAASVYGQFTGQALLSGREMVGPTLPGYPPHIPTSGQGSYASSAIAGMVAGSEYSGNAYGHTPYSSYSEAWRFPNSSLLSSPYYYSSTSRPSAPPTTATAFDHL

[11] = potency of ADAM10 substrate cleavage blockers – biochemical, QFRET, dose response (AID 743254);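 further: ADAM10 enzyme with the DM2 quenched FRET peptide as substrate; EDANS fluorescence gain as the protease cuts the substrate; inhibitor potency against ADAM10 proteolytic activity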
[12] = target: Disintegrin and metalloproteinase domain-containing protein 17 (Homo sapiens, UniProt P78536); assay: inhibition of ADAM17 substrate cleavage – biochemical, quenched FRET substrate, counter-screen for ADAM10 exosite inhibitor project, dose response (AID 743253)
Chain of Disintegrin and metalloproteinase domain-containing protein 17 (P78536 whole entry, the tested form may be a part): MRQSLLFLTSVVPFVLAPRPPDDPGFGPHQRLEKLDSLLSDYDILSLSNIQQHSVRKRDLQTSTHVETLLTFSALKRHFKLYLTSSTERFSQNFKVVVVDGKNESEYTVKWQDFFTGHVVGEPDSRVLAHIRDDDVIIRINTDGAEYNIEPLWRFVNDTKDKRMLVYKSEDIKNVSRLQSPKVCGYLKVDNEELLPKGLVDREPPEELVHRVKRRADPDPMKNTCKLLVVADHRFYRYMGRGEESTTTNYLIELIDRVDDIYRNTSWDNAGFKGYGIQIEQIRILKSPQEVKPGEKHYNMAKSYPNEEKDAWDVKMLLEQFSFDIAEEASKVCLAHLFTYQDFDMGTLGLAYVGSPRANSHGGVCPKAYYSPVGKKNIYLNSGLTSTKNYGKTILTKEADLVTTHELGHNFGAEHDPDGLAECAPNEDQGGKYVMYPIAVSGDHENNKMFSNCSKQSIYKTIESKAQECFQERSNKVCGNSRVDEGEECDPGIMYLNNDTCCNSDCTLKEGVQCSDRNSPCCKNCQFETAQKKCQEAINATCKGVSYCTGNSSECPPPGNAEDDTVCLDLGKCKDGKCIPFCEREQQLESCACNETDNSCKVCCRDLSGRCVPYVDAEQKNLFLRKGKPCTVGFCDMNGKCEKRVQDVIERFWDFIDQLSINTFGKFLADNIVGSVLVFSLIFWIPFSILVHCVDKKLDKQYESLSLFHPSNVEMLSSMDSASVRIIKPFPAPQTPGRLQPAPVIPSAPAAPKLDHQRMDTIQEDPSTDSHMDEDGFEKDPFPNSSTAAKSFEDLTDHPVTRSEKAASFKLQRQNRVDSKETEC

## Fc1ccc(CCNCc2ccc(Cl)c(Cl)c2)cc1
[1]
  EC50: 0.915 µM (active)
[2]
  EC50: > 195 µM (not active)
[3]
  EC50: 0.915 µM (active)

## COc1ccc(OC)c(N2C(=O)/C(=C/c3ccco3)C(=O)NC2=S)c1
[4]
  IC50: < 1.23 µM (inactive)
[5]
  IC50: > 55.7 µM (not active)
[6]
  IC50: 8.01 µM (active)
[7]
  IC50: < 1.23 µM (inactive)
[8]
  IC50: < 1.23 µM (not active)
Hexokinase HKDC1
  IC50: 2.57 µM (active)
[9]
  AC50: 16.2 µM (active)
[10]
  AC50: 4.67 µM (active)

## NC(=O)[C@H]1CC2(CC(c3cccc(NC(=O)COc4ccc(Cl)cc4)c3)=NO2)CN1C(=O)C(c1ccccc1)c1ccccc1 (stereo partly specified)
CAAX prenyl protease 2
  AC50: 2.68 µM (active)
CAAX prenyl protease 1
  AC50: 5.73 µM (active)
Paired box protein Pax-8
  AC50: 15.7 µM (active)
[11]
  IC50: > 69.5 µM (inactive)
[12]
  IC50: > 69.5 µM (inactive)

— ChEMBL document CHEMBL1201862, “PubChem BioAssay data set” (2004)
